Measurements reported in article PMC2265061, “Compound Cytotoxicity Profiling Using Quantitative High-Throughput Screening” (Environmental Health Perspectives, 2007).
Entries after “also recorded” stand apart in the source; their conditions may differ. Where two headings read alike, the source gives them in different places.

Legend:
[1] = tested on: 13 human and rodent cell types; details: for Species selectivity of cytotoxicity (human versus rodent cell types): nine human versus four rodent cell types
From the text: Human renal mesangial cells obtained from adult kidney tissue were kindly provided by J. Kopp (National Institute of Diabetes and Digestive and Kidney Diseases, NIH, Bethesda, MD). Rat renal proximal tubule cells were freshly isolated from rat kidney by In Vitro ADMET Laboratories, LLC (Rockville, MD). All cells chosen for testing represent target tissues of interest in toxicology from both human and rodent sources; most were transformed lines, but some were nontransformed or primary cells. All are well-characterized cells, produce uniform populations, are relatively easy to culture, and are amenable to a 1,536-well format.
We measured cell viability using a luciferase-coupled ATP quantitation assay (CellTiter-Glo; Promega, Madison, WI). […] Cells were dispensed at 1,000–2,000 cells/5 μL/well in tissue-culture treated 1,536-well white/solid bottom assay plates (Greiner Bio-One North America, Monroe, NC) using a Flying Reagent Dispenser (Aurora Discovery, Carlsbad, CA). All but Jurkat cells (which are grown in suspension) were incubated at 37°C for 5–6 hr to allow for cell attachment, followed by addition of compounds via pin tool (Kalypsys, San Diego, CA). […] At the end of the incubation period, 5 μL of CellTiter-Glo reagent was added, plates were incubated at room temperature for 30 min, and the luminescence intensity of each well was determined using a ViewLux plate reader (PerkinElmer, Shelton, CT).
(§1) Class 1 or 2 compounds were further divided into subclasses based on efficacy and quality of fit (R^2). Compounds with R^2 > 0.9 and high (> 80%) efficacy were designated as subclass a, and compounds with R^2 > 0.9 and low efficacies (30–80%) as subclass b. […] Compound activity correlations between different assays or experiments were assessed by calculating the Pearson correlation coefficient. Hierarchical clustering of compound activity patterns across different assays was performed within Spotfire DecisionSite 8.2 (Spotfire Inc., Cambridge, MA) using the correlation of log IC50 values as the similarity metric.

[2] = tested on: SH-SY5Y
Experimental: (§2) We measured cell viability using a luciferase-coupled ATP quantitation assay (CellTiter-Glo; Promega, Madison, WI). In this assay, luminescent signal is proportional to amount of ATP and thus to the number of metabolically competent cells; cell injury and death result in a dramatic decrease in intracellular ATP levels ([Crouch et al. 1993]). Cells were dispensed at 1,000–2,000 cells/5 μL/well in tissue-culture treated 1,536-well white/solid bottom assay plates (Greiner Bio-One North America, Monroe, NC) using a Flying Reagent Dispenser (Aurora Discovery, Carlsbad, CA). All but Jurkat cells (which are grown in suspension) were incubated at 37°C for 5–6 hr to allow for cell attachment, followed by addition of compounds via pin tool (Kalypsys, San Diego, CA). […] At the end of the incubation period, 5 μL of CellTiter-Glo reagent was added, plates were incubated at room temperature for 30 min, and the luminescence intensity of each well was determined using a ViewLux plate reader (PerkinElmer, Shelton, CT).
(§3) Compound formatting and qHTS were performed as described previously ([Inglese et al. 2006]).
as §1, with “Analysis of compound concentration–response data was performed as previously described ([Inglese et al. 2006]). […] Concentration–response titration points for each compound were fitted to the Hill equation ([Hill 1910]), yielding concentrations of half-maximal inhibition (IC50) and maximal response (efficacy) values. […] Class” for “Class”

[3] = tested on: BJ; details: mean ± SD
Experimental: as §2, §3
as §1, with “Analysis of compound concentration–response data was performed as previously described ([Inglese et al. 2006]). […] Concentration–response titration points for each compound were fitted to the Hill equation ([Hill 1910]), yielding concentrations of half-maximal inhibition (IC50) and maximal response (efficacy) values. […] Class” for “Class”

[4] = tested on: H-4-II-E; details: mean ± SD
Experimental: as §2, §3
as §1, with “Analysis of compound concentration–response data was performed as previously described ([Inglese et al. 2006]). […] Concentration–response titration points for each compound were fitted to the Hill equation ([Hill 1910]), yielding concentrations of half-maximal inhibition (IC50) and maximal response (efficacy) values. […] Class” for “Class”

[5] = tested on: HUV-EC-C; details: mean ± SD
Experimental: as §2, §3
as §1, with “Analysis of compound concentration–response data was performed as previously described ([Inglese et al. 2006]). […] Concentration–response titration points for each compound were fitted to the Hill equation ([Hill 1910]), yielding concentrations of half-maximal inhibition (IC50) and maximal response (efficacy) values. […] Class” for “Class”

[6] = tested on: HepG2; details: HepG2, mean ± SD
Experimental: as §2, §3
as §1, with “Analysis of compound concentration–response data was performed as previously described ([Inglese et al. 2006]). […] Concentration–response titration points for each compound were fitted to the Hill equation ([Hill 1910]), yielding concentrations of half-maximal inhibition (IC50) and maximal response (efficacy) values. […] Class” for “Class”

[7] = tested on: Jurkat; details: mean ± SD
Experimental: as §2, §3
as §1, with “Analysis of compound concentration–response data was performed as previously described ([Inglese et al. 2006]). […] Concentration–response titration points for each compound were fitted to the Hill equation ([Hill 1910]), yielding concentrations of half-maximal inhibition (IC50) and maximal response (efficacy) values. […] Class” for “Class”

[8] = tested on: MRC-5; details: MRC-5, mean ± SD
Experimental: as §2, §3
as §1, with “Analysis of compound concentration–response data was performed as previously described ([Inglese et al. 2006]). […] Concentration–response titration points for each compound were fitted to the Hill equation ([Hill 1910]), yielding concentrations of half-maximal inhibition (IC50) and maximal response (efficacy) values. […] Class” for “Class”

[9] = tested on: Mesangial; details: mean ± SD
Experimental: as §2, §3
as §1, with “Analysis of compound concentration–response data was performed as previously described ([Inglese et al. 2006]). […] Concentration–response titration points for each compound were fitted to the Hill equation ([Hill 1910]), yielding concentrations of half-maximal inhibition (IC50) and maximal response (efficacy) values. […] Class” for “Class”

[10] = tested on: N2a; details: mean ± SD
Experimental: as §2, §3
as §1, with “Analysis of compound concentration–response data was performed as previously described ([Inglese et al. 2006]). […] Concentration–response titration points for each compound were fitted to the Hill equation ([Hill 1910]), yielding concentrations of half-maximal inhibition (IC50) and maximal response (efficacy) values. […] Class” for “Class”

[11] = tested on: Rat kidney proximal tubule; details: mean ± SD
Experimental: as §2, §3
as §1, with “Analysis of compound concentration–response data was performed as previously described ([Inglese et al. 2006]). […] Concentration–response titration points for each compound were fitted to the Hill equation ([Hill 1910]), yielding concentrations of half-maximal inhibition (IC50) and maximal response (efficacy) values. […] Class” for “Class”

[12] = tested on: SK-N-SH; details: mean ± SD
Experimental: as §2, §3
as §1, with “Analysis of compound concentration–response data was performed as previously described ([Inglese et al. 2006]). […] Concentration–response titration points for each compound were fitted to the Hill equation ([Hill 1910]), yielding concentrations of half-maximal inhibition (IC50) and maximal response (efficacy) values. […] Class” for “Class”

[13] = tested on: NIH 3T3; assay type: cell-based, Mouse
Experimental: as §2, §3
(§4) Analysis of compound concentration–response data was performed as previously described ([Inglese et al. 2006]). […] Compound activity correlations between different assays or experiments were assessed by calculating the Pearson correlation coefficient. […]

[14] = tested on: HEK293; assay type: cell-based
Experimental: as §2, §3, §4

[15] = tested on: HepG2 cells; test: Real-time cell electronic sensing (RT-CES) cytotoxicity assay; assay type: cell-based, Human; details: HepG2, RT-CES impedance, 0.14 to 100 μM
Experimental: HepG2 cells in the presence of compounds at concentrations from 0.14 to 100 μM were monitored by measurements of electrical impedance (ACEA Biosciences Inc., San Diego, CA) every 10 min for the first hour, then every hour for 70–90 hr.

## Cl.N=C1C=CC(=C(c2ccc(N)cc2)c2ccc(N)cc2)C=C1 [pararosaniline hydrochloride]
[1]; 0.59 nM to 92 μM, 40 hr
  Cytotoxicity pattern across the 13 cell types: cytotoxicity in all cell types at similar concentrations

## CN(C)C(=S)SSC(=S)N(C)C [tetra-methylthiuram disulfide]
[2]; more potent in SH-SY5Y
  Potency in SH-SY5Y relative to the next most responsive cell type: 250 fold

## CC/C(=C(\c1ccccc1)c1ccc(OCCN(C)C)cc1)c1ccccc1 [tamoxifen]
[3]
  Hill coefficient: 3.1 ± 1.0
[4]
  Hill coefficient: 2.7 ± 0.8
[5]
  Hill coefficient: 4.2 ± 0.5
[6]
  Hill coefficient: 4.4 ± 0.5
[7]
  Hill coefficient: 2.0 ± 0.2
[8]
  Hill coefficient: 2.9 ± 1.2
[9]
  Hill coefficient: 2.4 ± 0.8
[10]
  Hill coefficient: 4.0 ± 0.8
[11]
  Hill coefficient: 4.7 ± 0.3
[2]; SH-SY5Y, mean ± SD
  Hill coefficient: 3.1 ± 0.7
[12]
  Hill coefficient: 3.4 ± 0.7
[13]; NIH 3T3, mean ± SD
  Hill coefficient: 2.6 ± 0.8
[14]; HEK293, mean ± SD
  Hill coefficient: 3.8 ± 1.0

## [K+].[K+].[O]=[Cr](=[O])([O-])[O][Cr](=[O])(=[O])[O-] [potassium dichromate]
[1]
  Cytotoxicity pattern across the 13 cell types: cytotoxic in all 13 cell types
[15]
  Exposure time to complete cytotoxicity: 35 h

## [CH3][Hg][Cl] [methyl mercuric (II) chloride]
[13]
  Potency in NIH 3T3 relative to the next most responsive cell type: 50 fold

## CN(C)c1ccc(C(=C2C=CC(=[N+](C)C)C=C2)c2ccccc2)cc1.CN(C)c1ccc(C(=C2C=CC(=[N+](C)C)C=C2)c2ccccc2)cc1.O=C(O)C(=O)O.O=C([O-])C(=O)O.O=C([O-])C(=O)O [malachite green oxalate]
[1]
  Cytotoxicity pattern across the 13 cell types: cytotoxicity in all cell types at similar concentrations

## C[C@@H]1C[C@@H]([C@H](O)CC2CC(=O)NC(=O)C2)C(=O)[C@@H](C)C1 [cycloheximide]
[1]; human, rat, mouse
  Cytotoxicity pattern across the 13 cell types: cytotoxic in all but two cell types (MRC-5 and SH-SY5Y)
[15]
  Kinetic response (cell index over time): inhibited cell proliferation but did not decrease cell number below what was present at the time of addition

## Cc1ccc2c(c1[N+](=O)[O-])C(=O)c1ccccc1C2=O [2-methyl-1-nitroanthraquinone]
[14]; in HEK293 cells
  Cell type-selective toxicity: selective toxicity

## O=C(Nc1ccccc1)Nc1ccccc1 [diphenylurea]
[1]
  Species selectivity of cytotoxicity (human versus rodent cell types): toxicity in cells from one species but not the other

## CC(=O)[O][Hg][c]1ccccc1 [phenyl mercuric acetate]
[1]
  Cytotoxicity pattern across the 13 cell types: uniformly toxic across all cell types

## CN(C)c1ccc(N=Nc2ccccc2)cc1 [dimethylaminoazobenzene]
[1]
  Species selectivity of cytotoxicity (human versus rodent cell types): more toxic to rodent cells

## CN(C)c1ccc(C(=C2C=CC(=[N+](C)C)C=C2)c2ccc(N(C)C)cc2)cc1.[Cl-] [hexamethyl-p-rosaniline chloride]
[1]
  Cytotoxicity pattern across the 13 cell types: cytotoxicity in all cell types at similar concentrations

## C[C@H]1O[C@@H](O[C@H]2[C@@H](O)C[C@H](O[C@H]3[C@@H](O)C[C@H](O[C@H]4CC[C@@]5(C)[C@H](CC[C@@H]6[C@@H]5C[C@@H](O)[C@]5(C)[C@@H](C7=CC(=O)OC7)CC[C@]65O)C4)O[C@@H]3C)O[C@@H]2C)C[C@H](O)[C@@H]1O [digoxin]
[1]
  Species selectivity of cytotoxicity (human versus rodent cell types): more toxic to human cells

## COc1cccc2c1C(=O)c1c(O)c3c(c(O)c1C2=O)C[C@@](O)(C(=O)CO)C[C@@H]3O[C@H]1C[C@H](N)[C@H](O)[C@H](C)O1 [doxorubicin]
[1]; 0.59 nM to 92 μM, 40 hr
  Cytotoxicity pattern across the 13 cell types: toxic in all cell types; also recorded: cytotoxic in all 13 cell types
[15]
  Exposure time to complete cytotoxicity: 35 h

## C[C@@H]1CC[C@@]2(OC1)O[C@H]1[C@@H](O)[C@H]3[C@@H]4CC[C@H]5C[C@@H](O[C@@H]6O[C@H](CO)[C@H](O[C@@H]7O[C@H](CO)[C@@H](O)[C@H](O[C@@H]8OC[C@@H](O)[C@H](O)[C@H]8O)[C@H]7O[C@@H]7O[C@H](CO)[C@H](O)[C@H](O[C@@H]8O[C@H](CO)[C@@H](O)[C@H](O)[C@H]8O)[C@H]7O)[C@H](O)[C@H]6O)[C@H](O)C[C@]5(C)[C@H]4CC[C@]3(C)[C@H]1[C@@H]2C [digitonin]
[1]; 0.59 nM to 92 μM, 40 hr
  Cytotoxicity pattern across the 13 cell types: cytotoxicity in all cell types at similar concentrations; also recorded: cytotoxic in all 13 cell types; also recorded: uniformly toxic across all cell types
[15]
  Exposure time to full cytotoxicity: 10 min
